Reference: patent US6995182B2, “1-sulfonyl pyrrolidine derivatives” (Hoffmann-La Roche Inc., priority 2000, dated 2006)

`Cc1ccc(S(=O)(=O)N2[C@@H](C(=O)NCc3cccnc3)CC[C@H]2c2ccc(F)cc2)cc1.Cl` (racemic) showed a melting point of 186 °C.

With `COC(=O)[C@H]1CC[C@@H](c2ccc(F)cc2)N1S(=O)(=O)c1ccc(C)cc1` (racemic) [Example 1, (2RS,5SR)-5-(4-Fluoro-phenyl)-1-(toluene-4-sulfonyl)-pyrrolidine-2-carboxylic acid methyl ester] the melting point was 91 °C.

With `Cc1ccc(S(=O)(=O)N2[C@@H](CO)CC[C@H]2c2ccc(F)cc2)cc1` (racemic) [Example 2, (2RS,5SR)-[5-(4-Fluoro-phenyl)-1-(toluene-4-sulfonyl)-pyrrolidin-2-yl]-methanol] the melting point was 82 °C.

`Cc1ccc(S(=O)(=O)N2[C@@H](C(N)=O)CC[C@H]2c2ccc(F)cc2)cc1` (racemic) [Example 3, (2RS,5SR)-5-(4-Fluoro-phenyl)-1-(toluene-4-sulfonyl)-pyrrolidine-2-carboxylic acid amide] showed a melting point of 137 °C.

Work on `Cc1ccc(S(=O)(=O)N2[C@@H](C(=N)NO)CC[C@H]2c2ccc(F)cc2)cc1` (racemic) [Example 7, (2RS,5SR)-5-(4-Fluoro-phenyl)-N-hydroxy-1-(toluene-4-sulfonyl)-pyrrolidine-2-carboxamidine] yielded a melting point of 217 °C.

For `COC[C@@H]1CC[C@H](c2ccc(F)cc2)N1S(=O)(=O)c1ccc(C)cc1` (racemic) [Example 8, (2RS,5SR)-2-(4-Fluoro-phenyl)-5-methoxymethyl-1-(toluene-4-sulfonyl)-pyrrolidine], the melting point was 152 °C.

`CC(=O)NC[C@H]1CC[C@@H](c2ccc(F)cc2)N1S(=O)(=O)c1ccc(C)cc1` (racemic) [Example 9, (2RS,5SR)-N-[5-(4-Fluoro-phenyl)-1-(toluene-4-sulfonyl)-pyrrolidin-2-yl-methyl]-acetamide] gave a melting point of 117 °C.

In the case of `Cc1ccc(S(=O)(=O)N2[C@@H](CC#N)CC[C@H]2c2ccc(F)cc2)cc1` (racemic) [Example 10, (2RS,5SR)-[5-(4-Fluoro-phenyl)-1-(toluene-4-sulfonyl)-pyrrolidin-2-yl]-acetonitrile], the melting point was 116 °C.

Work on `Cc1ccc(S(=O)(=O)N2[C@@H](c3ncon3)CC[C@H]2c2ccc(F)cc2)cc1` (racemic) [Example 14, (2RS,5SR)-3-[5-(4-Fluoro-phenyl)-1-(toluene-4-sulfonyl)-pyrrolidin-2-yl]-[1,2,4]oxadiazole] yielded a melting point of 165 °C.

Work on `CCC(=O)NC[C@H]1CC[C@@H](c2ccc(F)cc2)N1S(=O)(=O)c1ccc(C)cc1` (racemic) [Example 15, (2RS,5SR)-N-[5-(4-Fluoro-phenyl)-1-(toluene-4-sulfonyl)-pyrrolidin-2-yl-methyl]-propionamide] yielded a melting point of 142 °C.

With `Cc1ccc(S(=O)(=O)N2[C@@H](CCNC(=O)c3ccccc3)CC[C@H]2c2ccc(F)cc2)cc1` (racemic) [Example 18, (2RS,5SR)-N-{2-[5-(4-Fluoro-phenyl)-1-(toluene-4-sulfonyl)-pyrrolidin-2-yl]-ethyl}-benzamide] the melting point was 60 °C.

With `CC(=O)NCC[C@H]1CC[C@@H](c2ccc(F)cc2)N1S(=O)(=O)c1ccc(C)cc1` (racemic) [Example 20, (2RS,5SR)-N-{2-[5-(4-Fluoro-phenyl)-1-(toluene-4-sulfonyl)-pyrrolidin-2-yl]-ethyl}-acetamide] the melting point was 124 °C.

`Cc1ccc(S(=O)(=O)N2[C@@H](c3nc(C)no3)CC[C@H]2c2ccc(F)cc2)cc1` (racemic) [Example 25, (2RS,5SR)-5-[5-(4-Fluoro-phenyl)-1-(toluene-4-sulfonyl)-pyrrolidin-2-yl]-3-methyl-[1,2,4]oxadiazole] gave a melting point of 128 °C.

With `Cc1ccc(S(=O)(=O)N2[C@@H](c3ncn(C)n3)CC[C@H]2c2ccc(F)cc2)cc1` (racemic) [Example 26, (2RS,5SR)-3-[5-(4-Fluoro-phenyl)-1-(toluene-4-sulfonyl)-pyrrolidin-2-yl]-1-methyl-1H-[1,2,4]triazole] the melting point was 160 °C.

`Cc1ccc(S(=O)(=O)N2[C@@H](c3nnn(C)n3)CC[C@H]2c2ccc(F)cc2)cc1` (racemic) [Example 27, (2RS,5SR)-5-[5-(4-Fluoro-phenyl)-1-(toluene-4-sulfonyl)-pyrrolidin-2-yl]-2-methyl-2H-tetrazole] gave a melting point of 150 °C.

With `Cc1ccc(S(=O)(=O)N2[C@@H](CCC(N)=O)CC[C@H]2c2ccc(F)cc2)cc1` (racemic) [Example 29, (2RS,5SR)-3-[5-(4-Fluoro-phenyl)-1-(toluene-4-sulfonyl)-pyrrolidin-2-yl]-propionamide] the melting point was 136 °C.

For `Cc1ccc(S(=O)(=O)N2[C@@H](CCc3nc(C)no3)CC[C@H]2c2ccc(F)cc2)cc1` (racemic) [Example 30, (2RS,5SR)-5-{2-[5-(4-Fluoro-phenyl)-1-(toluene-4-sulfonyl)-pyrrolidin-2-yl]-ethyl}-3-methyl-[1,2,4]oxadiazole], the melting point was 91 °C.

Work on `Cc1ccc(S(=O)(=O)N2[C@@H](CCC#N)CC[C@H]2c2ccc(F)cc2)cc1` (racemic) [Example 31, (2RS,5SR)-3-[5-(4-Fluoro-phenyl)-1-(toluene-4-sulfonyl)-pyrrolidin-2-yl]-propionitrile] yielded a melting point of 86 °C.

`Cc1ccc(S(=O)(=O)N2[C@@H](CCC(=N)NO)CC[C@H]2c2ccc(F)cc2)cc1` (racemic) [Example 34, (2RS,5SR)-3-[5-(4-Fluoro-phenyl)-1-(toluene-4-sulfonyl)-pyrrolidin-2-yl]-N-hydroxy-propionamidine] gave a melting point of 134 °C.

Work on `Cc1ccc(S(=O)(=O)N2[C@@H](CNC(=O)C3CCCC3)CC[C@H]2c2ccc(F)cc2)cc1` (racemic) [Example 37, (2RS,5SR)-Cyclopentanecarboxylic acid [5-(4-fluoro-phenyl)-1-(toluene-4-sulfonyl)-pyrrolidin-2-yl-methyl]-amide] yielded a melting point of 147 °C.

`Cc1ccc(S(=O)(=O)N2[C@@H](CNC(=O)C(C)(C)C)CC[C@H]2c2ccc(F)cc2)cc1` (racemic) [Example 38, (2RS,5SR)-N-[5-(4-Fluoro-phenyl)-1-(toluene-4-sulfonyl)-pyrrolidin-2-yl-methyl]-2,2-dimethyl-propionamide] showed a melting point of 128 °C.

Compound `Cc1ccc(S(=O)(=O)N2[C@@H](CCCO)CC[C@@H]2c2ccc(F)cc2)cc1` (racemic) [Example 44, (2RS,5RS)-3-[5-(4-Fluoro-phenyl)-1-(toluene-4-sulfonyl)-pyrrolidin-2-yl]-propan-1-ol] has a melting point of 93 °C.

In the case of `Cc1ccc(S(=O)(=O)N2[C@H](CCCC#N)CC[C@@H]2c2ccc(F)cc2)cc1` (racemic) [Example 45, (2RS,5RS)-4-[5-(4-Fluoro-phenyl)-1-(toluene-4-sulfonyl)-pyrrolidin-2-yl]-butyronitrile], the melting point was 74 °C.

Work on `Cc1ccc(S(=O)(=O)N2[C@H](CCCc3nnn(C)n3)CC[C@@H]2c2ccc(F)cc2)cc1` (racemic) [Example 49, (2RS,5RS)-5-{3-[5-(4-Fluoro-phenyl)-1-(toluene-4-sulfonyl)-pyrrolidin-2-yl]-propyl}-2-methyl-2H-tetrazole] yielded a melting point of 107 °C.

In the case of `Cc1ccc(S(=O)(=O)N2[C@H](CCCc3nnnn3C)CC[C@@H]2c2ccc(F)cc2)cc1` (racemic) [Example 50, (2RS,5RS)-5-{3-[5-(4-Fluoro-phenyl)-1-(toluene-4-sulfonyl)-pyrrolidin-2-yl]-propyl}-1-methyl-1H-tetrazole], the melting point was 153 °C.
